This series in a line: Tank-mix compatibility test of dodine 400 SC with another pesticide or adjuvant. It is filed as physicochemical. The conditions noted are these: dodine 400 SC 1.25 l/200 l water plus other pesticide or adjuvant, observed after mixing for 30 minutes. The protocol: Test protocols for evaluating the compatibility of pesticide active ingredients and adjuvants are readily available and known to a person skilled in the art. A method suitable for use in the present invention is as follows: fill a 250 ml beaker with 200 ml of well water (temperature 15-17° C., water hardness 8° dH corresponding to 80 mg calcium oxide/l). […] Add a magnetic stirrer to the beaker. Stir the suspension for approximately 5 minutes at a speed of rotation of 700 rotations per minute. Add a mixing partner, such as an adjuvant or second plant protection product to the suspension. Stir the suspension for an additional 15 minutes. Stop stirring when a total stirring time of 20 minutes is obtained. Let the suspension stand unstirred for a few minutes. Then check for any separation, sediment, crystallization or flocculation. Note down the results of the visual observation. Stir the suspension for a further 20 minutes. Stop the stirring. After 2 hours have lapsed assess the compatibility for a second time. Upon finishing the second observation, pour the whole suspension over a 100 μm sieve. Note down if residue is present on the sieve.
Tank-mixes comprising dodine without acetate were prepared. […] Mixing was stopped.
As a comparison, the same tank-mixes were prospered, this time comprising dodine with acetate (A′-E′). […] Mixing was stopped after 30 minutes.

[1] abbreviates: with sodium acetate 0.36 kg/200 l.

As for `CCC(C)(C)C(=O)OC1=C(c2ccc(Cl)cc2Cl)C(=O)OC12CCCCC2` [spirodiclofen], the Compatibility test entry by setting is: under setting [1], “improved the compatibility”; (without compatibility agent) “not possible due to incompatibility problems”.
Taken in the same sequence, the figures for `COc1cccc(C(=O)NN(C(=O)c2cc(C)cc(C)c2)C(C)(C)C)c1C` [methoxyfenozide, benzoic acid, 3-methoxy-2-methyl-, 2-(3,5-dimethylbenzoyl)-2-(1,1-dimethylethyl)hydrazide] were “improved the compatibility” and “not possible due to incompatibility problems”.
The corresponding values for `Cc1cc(C)nc(Nc2ccccc2)n1` [pyrimethanil, N-(4,6-dimethylpyrimidin-2-yl)aniline] are “improved the compatibility” and “not possible due to incompatibility problems”.

(Values after US9247732B2, “Agrochemical formulations containing a compatibility agent” (priority 2011, dated 2016).)
